# Laboratory results from US4632905A, “Microbial sulfhydryl oxidase” (Novo Laboratories, Inc., priority 1985, dated 1986).
# “And” between values parts separate entries of the source, which are not always exact repeats. Equal entries are not always repeated.
# Tests used:
# Type in all cases: biochemical
# Aspergillus sojae SOX [1] = test: Substrate specificity of SOX toward low MW thiol compounds, polarographic (oxygen consumption); details: 1 mM test compound, 227 μM oxygen, 50 mM potassium phosphate pH 6.7, 30° C., corrected for auto-oxidation
# Description: SOX activity may be ascertained by two methods. The activity may be determined by measuring the oxygen consumed when a suitable substrate, e.g., reduced glutathione, is oxidized enzymatically to the corresponding disulfide. The stoichiometry involved is according to the equations 1 and 2 below, namely, 1/2 oxygen consumed per disulfide formed, when the reaction is carried out in the presence of catalase activity.
# The assay employs oxygen electrode techniques and is used with low MW compounds as substrates.
# The ability of low MW thiol-containing compounds to serve as substrates for SOX was determined polarographically at 30° C., pH 6.7. […] Protein specificity was determined with proteins in their reductively denatured state. Reductive denaturation is accomplished by submitting the protein to a denaturant e.g., urea and a mercaptan such as beta-mercaptoethanol at pH 8.5. Renaturation is then achieved by incubating the reduced protein with the SOX for a period of time at pH 7.0. The progress of the renaturation can easily be assessed by reaction of the protein with DTNB.
# The activity of the SOX preparation may be determined polarographically by measuring the oxygen consumed when a substrate e.g., reduced glutathione (GSH) is oxidized to the corresponding disulfide. The activity may also be determined spectrophotometrically using dithiobisnitrobenzoic acid (DTNB) which specifically reacts with a free sulfhydryl by measuring the absorption at 412 nm (ε=13.6×10^3 M^-1 cm^-1). Therefore, one unit of activity is defined as that amount of enzyme which catalyzes the consumption of 1.0 μmole of oxygen per minute or loss of 2.0 μmoles of free sulfhydryls per minute at 30° C., pH 6.7 using 1 mM GSH as substrate.
# The substrate specificity of SOX toward low MW compounds containing a free SH moiety was ascertained by polarographic methodology. The activities were measured relative to glutathione (GSH) at 30° C. in the following assay system: 1 mM test compound, 227 μM molecular oxygen, 50 mM potassium phosphate pH 6.7, and sufficient SOX to yield a linear decrease in oxygen during the first three minutes. The rates were corrected for auto-oxidation.
# Aspergillus sojae SOX [2] = test: Inhibition of Aspergillus sojae SOX
# bovine SOX = test: Inhibition of bovine SOX; details: 1 mM concentration
structure (smiles),measurement,setting,value
"O[C@H](CS)[C@@H](O)CS [dithioerythreitol, D,L-dithioerythreitol]",% of Activity with GSH,Aspergillus sojae SOX [1],6.6%
same,% of Activity with GSH,"Aspergillus sojae SOX [1]; listed as D,L-dithioerythreitol",3-22%
O=C(O)CN(CCN(CC(=O)O)CC(=O)O)CC(=O)O [EDTA],Inhibition of Aspergillus sojae SOX,Aspergillus sojae SOX [2]; concentration not printed for this enzyme,not inhibited
same,Inhibition of bovine SOX,bovine SOX,almost completely
"N[C@H](CS)C(=O)O [D--cysteine, D-cysteine]",% of Activity with GSH,Aspergillus sojae SOX [1],4.1%
same,% of Activity with GSH,Aspergillus sojae SOX [1]; listed as D-cysteine,3-22%
"CC(=O)N[C@@H](CS)C(=O)O [N--acetyl-L--cysteine, N-acetyl-L-cysteine]",% of Activity with GSH,Aspergillus sojae SOX [1],3.0%
same,% of Activity with GSH,Aspergillus sojae SOX [1]; listed as N-acetyl-L-cysteine,3-22%
"CCOC(=O)[C@@H](N)CS [L--cysteine, ethyl ester, L-cysteine ethyl ester]",% of Activity with GSH,Aspergillus sojae SOX [1],21.8%
same,% of Activity with GSH,Aspergillus sojae SOX [1]; listed as L-cysteine ethyl ester,3-22%
OCCS [beta-mercaptoethanol],% of Activity with GSH,Aspergillus sojae SOX [1],3-22% and 4.2%
"N[C@@H](CCC(=O)N[C@@H](CS)C(=O)NCC(=O)O)C(=O)O [glutathione, δ-L-glutamyl-L-cysteinyl-glycine]",% of Activity with GSH,Aspergillus sojae SOX [1],100%
O=S(=O)([O-])[O-].[Zn+2] [ZnSO4],Inhibition of microbial SOX,Aspergillus sojae SOX [2]; 1 mM concentration,partially inhibited
same,Inhibition of bovine SOX,bovine SOX,non-inhibitory
"O[C@H](CS)[C@H](O)CS (racemic) [D,L--dithiothreitol, D,L-dithiothreitol]",% of Activity with GSH,Aspergillus sojae SOX [1],5.6%
same,% of Activity with GSH,"Aspergillus sojae SOX [1]; listed as D,L-dithiothreitol",3-22%
"N[C@@H](CS)C(=O)O [L--cysteine, L-Cysteine]",% of Activity with GSH,Aspergillus sojae SOX [1],8.7%
same,% of Activity with GSH,Aspergillus sojae SOX [1]; listed as L-Cysteine,3-22%
